According to patent US20250186436A1 (4E Therapeutics, Inc., priority 2021, published 2025):
“And” between values parts separate entries of the source, which are not always exact repeats. Identical values can stand only once. Like-named read-outs stand apart in the source and are kept apart here.

Experiments:
[1] = PK study in male Sprague Dawley rats, IV 1 mg/kg and PO 10 mg/kg (Example 4); type: in vivo; conditions: for clearance: CLp; for Vd: Vss; for concentration at 24 h: plasma; for AUC(0-t): AUClast
[2] = Plasma and brain concentrations, brain:plasma ratio 24 hr after last of five daily 1 mg/kg PO doses (Example 6); type: in vivo, rats; conditions: for concentration at 24 h / Kp at 24 h: rat; for concentration at 24 h: oral, 1 mg/kg
Source text: Table 18 provides plasma and brain concentrations of 4ET-03-0053 at 24 hr after the last dose of five daily P0 doses.

[3] = PK study in male Sprague-Dawley rats dosed once per day for five days, PO 10 mg/kg, 0.5% HPMC (Example 7); type: in vivo; conditions: Sprague-Dawley rats, day five of daily PO 10 mg/kg, 0.5% HPMC suspension; individual animals; 10 mg/kg
Procedure: Example 7. PK study of 4ET-03-053 in male Sprague-Dawley rats dosed once per day for five days (P0; 10 mg/kg; 0.5%0HPMC aqueous suspension)
Table 21 provides plasma and brain concentrations at 24 hr after the last dose of five daily P0 doses of 4ET-03-053.

[4] = SD rats, single PO 10 mg/kg, 10% DMA/PG, individual animals, 10 mg/kg
[5] = SD rats, single PO 10 mg/kg, 10% DMA/PG, mean (n = 3)
[6] = male SD rats, 1 mg/kg IV, individual animals, 1 mg/kg
[7] = male SD rats, 1 mg/kg IV, mean (n = 3)
[8] = male, Sprague Dawley, rat, in vivo, iv, 1 mg/kg
[9] = male, Sprague-Dawley, rat, in vivo, iv, 1 mg/kg
[10] = male, Sprague-Dawley, rat, in vivo, po, 10 mg/kg

Compound: Cc1cc(Nc2cc(N)ncn2)c(=O)n2c1C(=O)NC21CCC2(CC2)CC1 [4ET-03-053, 6″-((6-Aminopyrimidin-4-yl)amino)-8″-methyl-2″H-dispiro[cyclopropane-1,1′-cyclohexane-4′,3″-imidazo[1,5-a]pyridine]-1″,5″-dione]
- Tlast ([1]; SD rats, single PO 10 mg/kg, 10% DMA/PG, individual animals): 24.0 h
- AUCinf/D [1, 4]: 23000 kg·h/kL and 24504 kg·h/kL and 18751 kg·h/kL
- Clast [1, 4]: 2710 ng/mL and 2950 ng/mL
- Cmax/D [1, 4]: 1440 kg/kL and 1960 kg/kL and 1840 kg/kL
- F [1, 4]: 44.7% and 47.6% and 36.4%
- AUCinf/D [1, 5]: 22085 kg·h/kL
- Cmax/D [1, 5]: 1747 kg/kL
- F [1, 5]: 42.9%
- Tlast [1, 5]: 24.0 h
- Tlast ([1]; male SD rats, 1 mg/kg IV, individual animals): 24.0 h
- AUCinf [1, 6]: 55049 ng·h/mL and 46264 ng·h/mL
- AUCinf/D [1, 6]: 53103 kg·h/kL and 55049 kg·h/kL and 46264 kg·h/kL
- Clast [1, 6]: 302 ng/mL and 336 ng/mL
- Co [1, 6]: 8106 ng/mL and 7353 ng/mL and 7726 ng/mL
- AUCinf/D [1, 7]: 51472 kg·h/kL
- Co [1, 7]: 7728 ng/mL
- Tlast [1, 7]: 24.0 h
- C0 [1, 8]: 7730 ng/mL
- CLp [1, 8]: 0.326 mL/min/kg
- clearance [1, 8]: 0.33 mL/min/kg
- Vd [1, 8]: 0.15 L/kg
- half-life ([1]; male, Sprague Dawley, rat, in vivo, iv, 1 mg/kg, t1/2): 6.36 h
- AUC(0-inf) ([1]; male, Sprague Dawley, rat, in vivo, iv, 1 mg/kg, total systemic exposure (AUCinf)): 51500 ng·h/mL
- bioavailability ([1]; male, Sprague Dawley, rat, in vivo, po, 10 mg/kg): 42.9%
- Cmax ([1]; male, Sprague Dawley, rat, in vivo, po, 10 mg/kg, peak plasma concentration (Cmax)): 17500 ng/mL
- half-life ([1]; male, Sprague Dawley, rat, in vivo, po, 10 mg/kg, terminal half-life (t1/2)): 9.1 h
- AUC(0-inf) ([1]; male, Sprague Dawley, rat, in vivo, po, 10 mg/kg, total systemic exposure (AUCinf)): 221000 ng·h/mL
- concentration at 24 h ([1]; male, Sprague Dawley, rat, iv, 1 mg/kg, male SD rats, 1 mg/kg IV, at 24 h, mean (n = 3), read-out: Clast): 350 ng/mL
- concentration at 24 h ([1]; male, Sprague Dawley, rat, po, 10 mg/kg, rats, 10 mg/kg PO, 10% DMA/PG, at 24 h, read-out: last measurable concentration): 2620 ng/mL
- AUC(0-t) [1, 9]: 51100 ng·h/mL
- clearance [1, 9]: 0.314 mL/min/kg
- MRT inf ([1]; male, Sprague-Dawley, rat, in vivo, iv, 1 mg/kg, MRTinf): 7.24 h
- Vd [1, 9]: 0.136 L/kg
- AUC(0-inf) ([1]; male, Sprague-Dawley, rat, in vivo, iv, 1 mg/kg, male SD rats, 1 mg/kg IV, individual animals, read-out: AUCinf): 53100 ng·h/mL
- AUC(0-inf) ([1]; male, Sprague-Dawley, rat, in vivo, iv, 1 mg/kg, male SD rats, 1 mg/kg IV, mean (n = 3), read-out: AUCinf): 51500 ng·h/mL
- half-life ([1]; male, Sprague-Dawley, rat, in vivo, iv, 1 mg/kg, t1/2): 6.63 h
- Tmax [1, 10]: 0.5 h
- AUC(0-t) [1, 10]: 194000 ng·h/mL
- Cmax ([1]; male, Sprague-Dawley, rat, in vivo, po, 10 mg/kg, Cmax): 14400 ng/mL
- half-life ([1]; male, Sprague-Dawley, rat, in vivo, po, 10 mg/kg, t1/2): 9.07 h
- concentration at 24 h ([1]; male, Sprague-Dawley, rat, iv, 1 mg/kg, male SD rats, 1 mg/kg IV, individual animals, read-out: Clast): 411 ng/mL
- concentration at 24 h ([1]; male, Sprague-Dawley, rat, po, 10 mg/kg, SD rats, single PO 10 mg/kg, 10% DMA/PG, individual animals, read-out: Clast): 2210 ng/mL
- concentration at 24 h ([1]; male, Sprague-Dawley, rat, po, 10 mg/kg, SD rats, single PO 10 mg/kg, 10% DMA/PG, mean (n = 3), read-out: Clast): 2620 ng/mL
- clinical observation after dosing ([1]; rats, 1 mg/kg IV): lying on side and immobile with heavy breathing for about 10 min
- clinical observation after dosing ([1]; rats, 1 mg/kg IV, 1 mg/kg): The second animal died right after a slow IV injection
- time to peak plasma concentration ([1]; rats, 10 mg/kg PO, 10% DMA/PG): ≤ 30 m
- concentration at 24 h ([2]; male, Sprague-Dawley, brain homogenate, rats, brain homogenate, 24 hr after the last 1 mg/kg PO dose on day 5, individual animals (n = 3), read-out: Tissue Homogenate Conc.): 7.22 ng/mL
- concentration at 24 h ([2]; male, Sprague-Dawley, brain homogenate, rats, brain homogenate, 24 hr after the last 1 mg/kg PO dose on day 5, mean, read-out: Tissue Homogenate Conc., Mean): 6.02 ng/mL
- concentration at 24 h ([2]; male, Sprague-Dawley, brain, rats, brain, 24 hr after the last 1 mg/kg PO dose on day 5, read-out: Mean Tissue): 24.1 ng/g
- concentration at 24 h ([2]; male, Sprague-Dawley, plasma, rats, plasma, 24 hr after the last 1 mg/kg PO dose on day 5, individual animals (n = 3), read-out: Plasma Conc.): 318 ng/mL
- concentration at 24 h ([2]; male, Sprague-Dawley, plasma, rats, plasma, 24 hr after the last 1 mg/kg PO dose on day 5, mean, read-out: Plasma Conc., Mean): 278 ng/mL
- Kp at 24 h ([2]; male, Sprague-Dawley, rats, brain to plasma, 24 hr after the last 1 mg/kg PO dose on day 5, read-out: Mean Tissue/Plasma Conc. Ratio): 0.086
- Kp at 24 h ([2]; brain, Sprague-Dawley rats, 24 hr after the last dose of five daily PO doses of 1 mg/kg, read-out: brain:plasma ratio): 0.086
- Tissue Homogenate Conc. ([2]; rats, brain homogenate, 24 hr after the last 1 mg/kg PO dose on day 5, individual animals (n = 3)): 5.79 ng/mL and 5.04 ng/mL
- Plasma Conc. ([2]; rats, plasma, 24 hr after the last 1 mg/kg PO dose on day 5, individual animals (n = 3)): 291 ng/mL and 226 ng/mL
- AUCinf [3]: 318204 ng·h/mL and 347920 ng·h/mL
- AUCinf/D [3]: 25862 kg·h/kL and 31820 kg·h/kL and 34792 kg·h/kL
- AUClast [3]: 291659 ng·h/mL and 320410 ng·h/mL
- Clast [3]: 2390 ng/mL and 2740 ng/mL
- Cmax [3]: 18800 ng/mL
